From patent US20240317816A1, “PEPTIDES FOR IMMUNOTHERAPY” (Genevive, Inc., priority 2021, published 2024) come the findings set out here.

For test [1], the system named is (LPS)-stimulated human monocyte-derived DCs. Kind of test: CXCL10 induction in LPS-stimulated dendritic cells. To be noted: for dose-dependent response of CXCL10 induction: dose response analysis, same assay setup; for CXCL10 induction: supernatants of low dose LPS-stimulated dendritic cells, vs other peptides and negative control peptide. It is filed as cell-based. As for the experimental part: Studies were performed to identify target peptides that induced CXCL10 production. Target peptides identified from human microbiomes from patients that responded to anti-PD-1 therapy were each synthesized and tested for TNF-α, CXCL10, IL6, and INF-γ induction. Fifteen peptides with high CXCL10 induction were identified for additional testing, indicated with asterisks in the figure (FIG. 1). […] Peptide sequences and characteristics can be found in Tables 4-7.
Peptides that bound to specific immune cells (1% of the screened peptides) were then evaluated for activity in cell-based assays using isolated primary human T cells, DCs, and macrophages. Immune-driven inhibition of tumor growth relies on DC-mediated recruitment of effector T cells, mainly via CXCL9 and CXCL10. […] Peptides inducing robust CXCL10 secretion (LPS)-stimulated human monocyte-derived DCs from multiple donors, with a mean induction of >2-fold of CXCL10 over OVA323 339 control peptide in DCs were selected for dose response analysis (n=36). […] To confirm cross species activity, 10 of the 15 peptides with EC50<10 μM were screened in vitro for CXCL10 induction in mouse bone marrow DCs.

Test [2] addresses T1, CCR7 (Homo sapiens, UniProt P32248).
T1 construct: expressed in transfected cells
T1 sequence (P32248 25-378): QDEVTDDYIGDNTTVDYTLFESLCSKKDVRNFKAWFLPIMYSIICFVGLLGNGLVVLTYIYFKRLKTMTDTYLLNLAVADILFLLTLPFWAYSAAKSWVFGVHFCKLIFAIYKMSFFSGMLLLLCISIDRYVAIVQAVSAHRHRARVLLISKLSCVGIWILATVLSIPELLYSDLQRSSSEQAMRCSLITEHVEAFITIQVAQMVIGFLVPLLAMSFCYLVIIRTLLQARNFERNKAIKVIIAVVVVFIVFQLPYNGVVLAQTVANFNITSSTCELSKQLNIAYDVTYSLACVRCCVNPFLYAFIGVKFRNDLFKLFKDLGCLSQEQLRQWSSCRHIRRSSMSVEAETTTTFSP
The test can be described thus: SelectScreen agonist/antagonist assay, chemokine receptor expressing U2OS cells. Type of test: cell-based. As for the experimental part: In agonist assays, chemokine receptor expressing U2OS cells are thawed and resuspended in Assay Media (DMEM, 1% dialyzed FBS, 25 mM HEPES pH 7.3, 0.1 mM NEAA, 100 U/mL/100 μg/mL Pen/Strep) to a concentration of 312,500 cells/mL. 4 μL of a 10× serial dilution of I-TAC (control agonist starting concentration, 500 nM) or compounds are added to appropriate wells of a 384-well TC-Treated assay plate. 32 μL of cell suspension (10,000 cells) is added to each well. 4 μL of Assay Media is added to all wells to bring the final assay volume to 40 μL. The plate is incubated for 16-24 hours at 37° C./5% CO2 in a humidified incubator. 8 μL of 1 μM Substrate+Solution D Loading Solution is added to each well and the plate is incubated for 2 hours at room temperature. The plate is read on a fluorescence plate reader.
In antagonist assays, CXCR3-bla U2OS cells were thawed and prepared as described above for the Agonist assay. 4 μL of 10× compounds or assay media was added to appropriate wells of a TC-Treated assay plate. 32 μL of cell suspension was added to the wells and pre-incubated at 37° C./5% CO2 in a humidified incubator with compounds and control antagonist titration for 30 minutes. 4 μL of 10× control agonist I-TAC at the pre-determined EC80 concentration is added to wells containing the control antagonist or compounds. […] The plate is read on a fluorescence plate reader.

Test [3] addresses T2, CXCR4 (Homo sapiens, UniProt P61073).
T2 construct: host or cells: U2OS
The test is described as above. Type of test: cell-based.

Test [4] has as its system RENCA cells. Kind of test: RENCA murine adenocarcinoma model, anti-tumor activity. Type of test: in vivo, BALB/c female mice. To be noted: for tumor volume: 2.5 mg/kg peritumorally daily; for survival: initial dosing. As for the experimental part:
To determine anti-tumor activity of SG-3-00802 in vivo, the RENCA murine adenocarcinoma model was used. It is a syngeneic, standardized experimental model of metastatic RCC. Briefly, BALB/c female mice were inoculated subcutaneously with RENCA cells. Established tumors were treated daily with 2.5 mg/kg SG-3-00802 peritumorally, alone or in combination with intraperitoneal administration of 10 mg/kg anti-PD-1 antibody.
Additional studies were performed to test survival and tumor volume responses to a re-challenge event. In one study, mice were allocated into dosing groups when tumors reached ˜100 mm^3. During the initial dosing study, time 0 was the first day of seven days of dosing. […] Re-implantation was completed on day 39 after dosing completion. Treated mice were tumor free for >20 days before being re-challenge. […] Tumor volume and survival was monitored as previously described. In the re-challenge experiment, time 0 is day 10 after re-challenge dosing.
To determine anti-tumor activity of SG-3-05021 in vivo, the RENCA murine adenocarcinoma model was used. Briefly, BALB/c female mice were inoculated subcutaneously with RENCA cells. Established tumors were treated daily with 2.5 mg/kg SG-3-05021 peritumorally, alone or in combination with intraperitoneal administration of 10 mg/kg anti-PD-1 antibody.

[5] abbreviates: in combination with 10 mg/kg i.p. anti-PD-1.

T2 sequence (P61073 whole entry): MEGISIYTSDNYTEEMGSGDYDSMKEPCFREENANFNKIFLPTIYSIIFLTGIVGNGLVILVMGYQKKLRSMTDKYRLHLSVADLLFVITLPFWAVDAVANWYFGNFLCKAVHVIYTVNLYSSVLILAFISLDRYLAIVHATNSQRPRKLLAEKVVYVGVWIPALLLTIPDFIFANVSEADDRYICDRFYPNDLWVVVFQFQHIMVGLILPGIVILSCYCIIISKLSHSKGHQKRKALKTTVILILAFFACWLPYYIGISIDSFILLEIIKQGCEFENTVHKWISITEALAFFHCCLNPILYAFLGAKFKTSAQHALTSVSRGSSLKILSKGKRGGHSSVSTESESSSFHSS

In the case of “LGKTDWIEKYFKVKKEKIDKMQRFLQG (peptide for immunotherapy; SG-3-05021)”, the “dose-dependent response of CXCL10 induction” value in test [1] is “robust dose-dependent response”. Further, in test [1], the CXCL10 induction entry is “high CXCL10 inducers”. Moreover, the “SelectScreen Agonist Mode” value in test [2] is “no agonistic activity and No”; in test [3] it was “no agonistic activity and No”. Also, the tumor volume result in test [4] (alone, vs PBS) was “decrease in tumor volume”; in test [4] (setting [5]) it was “decrease in tumor volume”. The survival result in test [4] (in combination with anti-PD-1) and in test [4] (peptide alone) was “survived a longer time” in each case.

In the case of “MKVRPSVKPMCEKCKIIRRKGRVMVICENPKHKQRQG [SG-3-00802]”, the “dose-dependent response of CXCL10 induction” value in test [1] was “robust dose-dependent response”. Further, the CXCL10 induction entry in test [1] is listed as “high CXCL10 inducers”. For the same sequence, the “SelectScreen Agonist Mode” value in test [2] was “weak agonistic activity and No”; in test [3] it was “no agonistic activity and No”. The “SelectScreen Antagonist Mode” value in test [3] was “moderate antagonistic activity and Yes”. In addition, the tumor volume entry in test [4] (alone, vs PBS) was “robust decrease in tumor volume”; in test [4] (setting [5]) it was “robust decrease in tumor volume”. The survival entry in test [4] (in combination with anti-PD-1) and in test [4] (peptide alone) was “increased survival” in each case. Also, in test [4] (primary study), the “# of animals with complete tumor regression out of total animals per group (primary study)” value is given as 2/12.
